# Measured values: patent publication US20240116985A1, “STAPLED PEPTIDES AND METHODS THEREOF” (priority 2020, published 2024)
# Target: T1, full-length beta-Catenin (Uniprot ID P35222) (Homo sapiens, UniProt P35222)
# T1 construct: 10 nM full-length beta-Catenin (Uniprot ID P35222)
# T1 sequence (P35222 1-781): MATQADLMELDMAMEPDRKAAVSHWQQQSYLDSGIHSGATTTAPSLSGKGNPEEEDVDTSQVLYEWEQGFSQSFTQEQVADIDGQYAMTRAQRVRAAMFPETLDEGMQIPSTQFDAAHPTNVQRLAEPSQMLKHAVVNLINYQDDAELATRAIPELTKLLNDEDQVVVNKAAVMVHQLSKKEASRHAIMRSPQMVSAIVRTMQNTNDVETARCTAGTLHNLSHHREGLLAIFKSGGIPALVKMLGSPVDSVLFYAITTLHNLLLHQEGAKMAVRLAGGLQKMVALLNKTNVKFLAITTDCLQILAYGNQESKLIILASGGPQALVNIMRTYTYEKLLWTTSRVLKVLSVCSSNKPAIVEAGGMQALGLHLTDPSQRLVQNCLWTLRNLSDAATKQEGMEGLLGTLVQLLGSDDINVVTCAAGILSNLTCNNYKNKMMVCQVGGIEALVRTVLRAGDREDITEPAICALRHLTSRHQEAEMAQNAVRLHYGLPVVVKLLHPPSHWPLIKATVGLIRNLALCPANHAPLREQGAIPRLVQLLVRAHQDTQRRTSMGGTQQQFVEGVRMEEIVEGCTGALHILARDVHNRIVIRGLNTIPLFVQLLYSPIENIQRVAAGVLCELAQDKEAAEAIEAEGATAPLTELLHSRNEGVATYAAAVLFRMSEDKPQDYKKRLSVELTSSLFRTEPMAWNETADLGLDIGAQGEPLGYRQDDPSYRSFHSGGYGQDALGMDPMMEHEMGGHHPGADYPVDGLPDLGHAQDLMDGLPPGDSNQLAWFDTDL
# Test: Fluorescence polarization IC50 (beta-catenin / 5FAM-TCF4 10-53 competition)
# Format: binding
# Settings: fluorescence polarization; read-out: beta-Catenin FP IC50
row,SMILES,IC50
1,"CC[C@@H]1NC(=O)[C@H](Cc2ccccc2)NC(=O)[C@H](C)NC(=O)C(C)(C)NC(=O)[C@H](Cc2cccc(C(=O)O)c2)NC(=O)[C@H](CC(=O)O)NC(=O)C2(CCCC=CCCCOC(=O)N3CC[C@@](C(=O)N[C@@H](Cc4ccsc4)C(=O)N[C@@H](Cc4csc5ccccc45)C(=O)N[C@@H](CCC(=O)N4CCCCC4)C(=O)N[C@@H](C)C(N)=O)(C3)NC1=O)CCCC=CC[C@]1(CCCN1C(C)=O)C(=O)N[C@@H](CC(=O)O)C(=O)N[C@@H](CC(C)(C)C)C(=O)N2 (stereo partly drawn) [I-2476, Ac-PL3-Asp-Npg-B5-Asp-3COOHF-Aib-Ala-Phe-Abu-PyrS2-3Thi-BztA-[Pip]GlnR-Ala-NH2]",7 nM
2,"CC(=O)N1CCC[C@]12CC=CCCCC1(CCCC=CCCCOC(=O)N3CC[C@@](C(=O)N[C@@H](Cc4ccsc4)C(=O)N[C@@H](Cc4csc5ccccc45)C(=O)N[C@@H](CCC(N)=O)C(N)=O)(C3)NC(=O)[C@H](CC(C)C)NC(=O)[C@H](Cc3ccccc3)NC(=O)[C@H](C)NC(=O)[C@H](C)NC(=O)[C@H](Cn3cc(CC4(C(=O)O)CC4)nn3)NC(=O)[C@H](CC(=O)O)NC1=O)NC(=O)[C@H](CC(C)(C)C)NC(=O)[C@H](CC(=O)O)NC2=O (stereo partly drawn) [I-2482, Ac-PL3-Asp-Npg-B5-Asp-[CH2CCpCO2H]TriAzDap-Ala-Ala-Phe-Leu-PyrS2-3Thi-BztA-Gln-NH2]",5 nM
3,"CC(=O)N1CCC[C@]12CC=CCCCC1(CCCC=CCCCOC(=O)N3CC[C@@](C(=O)N[C@@H](Cc4ccsc4)C(=O)N[C@@H](Cc4csc5ccccc45)C(=O)N[C@@H](CCC(N)=O)C(N)=O)(C3)NC(=O)[C@H](CC(C)C)NC(=O)[C@H](Cc3ccccc3)NC(=O)[C@H](C)NC(=O)[C@H](C)NC(=O)[C@H](Cn3cc(CC4(C(=O)O)CCCCC4)nn3)NC(=O)[C@H](CC(=O)O)NC1=O)NC(=O)[C@H](CC(C)(C)C)NC(=O)[C@H](CC(=O)O)NC2=O (stereo partly drawn) [I-2483, Ac-PL3-Asp-Npg-B5-Asp-[CH2CChCO2H]TriAzDap-Ala-Ala-Phe-Leu-PyrS2-3Thi-BztA-Gln-NH2]",5 nM
4,"CC(=O)N1CCC[C@]12CC=CCCCC1(CCCC=CCCCOC(=O)N3CC[C@@](C(=O)N[C@@H](Cc4ccccc4)C(=O)N[C@@H](Cc4csc5ccccc45)C(=O)N[C@@H](CC(=O)N4CCOCC4)C(N)=O)(C3)NC(=O)[C@H](CC(C)C)NC(=O)[C@H](Cc3ccccc3)NC(=O)[C@H](C)NC(=O)[C@H](CCO)NC(=O)[C@H](CCC(N)=O)NC(=O)[C@H](CC(=O)O)NC1=O)NC(=O)[C@H](CC1CCCCC1)NC(=O)[C@H](CC(N)=O)NC2=O (stereo partly drawn) [I-2498, Ac-PL3-Asn-Cha-B5-Asp-Gln-Hse-Ala-Phe-Leu-PyrS2-Phe-BztA-MorphAsn-NH2]",449 nM
5,"CC(=O)N1CCC[C@]12CC=CCCCCC1(CCCCC=CCOC(=O)N3CC[C@@](C(=O)N[C@@H](Cc4ccccc4C(F)(F)F)C(=O)N[C@@H](Cc4csc5ccccc45)C(=O)N[C@@H](C)C(N)=O)(C3)NC(=O)[C@H](CC(C)C)NC(=O)[C@H](Cc3ccccc3)NC(=O)[C@H](C)NC(=O)[C@H](CCC(N)=O)NC(=O)[C@H](Cc3cccc(C(=O)O)c3)NC(=O)[C@H](CC(=O)O)NC1=O)NC(=O)[C@H](CC(C)(C)C)NC(=O)[C@H](CC(=O)O)NC2=O (stereo partly drawn) [I-2506, Ac-PL3-Asp-Npg-B6-Asp-3COOHF-Gln-Ala-Phe-Leu-PyrS-2F3MeF-BztA-Ala-NH2]",332 nM
6,"CC(=O)N1CCC[C@]12CC=CCCCCC1(CCCCC=CCCOC(=O)N3CC[C@@](C(=O)N[C@@H](Cc4ccccc4C(F)(F)F)C(=O)N[C@@H](Cc4csc5ccccc45)C(=O)N[C@@H](CCC(N)=O)C(N)=O)(C3)NC(=O)[C@H](CC(C)C)NC(=O)[C@H](Cc3ccccc3)NC(=O)[C@H](C)NC(=O)[C@H](C)NC(=O)[C@H](Cc3cccc(C(=O)O)c3)NC(=O)[C@H](CC(=O)O)NC1=O)NC(=O)[C@H](CC(C)(C)C)NC(=O)[C@H](CC(=O)O)NC2=O (stereo partly drawn) [I-2509, Ac-PL3-Asp-Npg-B6-Asp-3COOHF-Ala-Ala-Phe-Leu-PyrS1-2F3MeF-BztA-Gln-NH2]",17 nM
7,"CC(=O)N1CCC[C@]12CC=CCCCCC1(CCCCC=CCCCOC(=O)N3CC[C@@](C(=O)N[C@@H](Cc4ccccc4C(F)(F)F)C(=O)N[C@@H](Cc4csc5ccccc45)C(=O)N[C@@H](CCC(N)=O)C(N)=O)(C3)NC(=O)[C@H](CC(C)C)NC(=O)[C@H](Cc3ccccc3)NC(=O)[C@H](C)NC(=O)[C@H](C)NC(=O)[C@H](Cc3cccc(C(=O)O)c3)NC(=O)[C@H](CC(=O)O)NC1=O)NC(=O)[C@H](CC(C)(C)C)NC(=O)[C@H](CC(=O)O)NC2=O (stereo partly drawn) [I-2511, Ac-PL3-Asp-Npg-B6-Asp-3COOHF-Ala-Ala-Phe-Leu-PyrS2-2F3MeF-BztA-Gln-NH2]",566 nM
8,"CC(=O)N1CCC[C@]12CC=CCCCCC1(CCCCC=CCCCOC(=O)N3CC[C@@](C(=O)N[C@@H](Cc4ccccc4C(F)(F)F)C(=O)N[C@@H](Cc4csc5ccccc45)C(=O)N[C@@H](CCC(N)=O)C(N)=O)(C3)NC(=O)[C@H](CC(C)C)NC(=O)[C@H](Cc3ccccc3)NC(=O)[C@H](C)NC(=O)[C@H](C)NC(=O)[C@H](Cc3cccc(C(=O)O)c3)NC(=O)[C@H](CC(=O)O)NC1=O)NC(=O)[C@H](CC(C)(C)C)NC(=O)[C@H](CC(=O)O)NC2=O (stereo partly drawn) [I-2512, Ac-PL3-Asp-Npg-B6-Asp-3COOHF-Ala-Ala-Phe-Leu-PyrS2-2F3MeF-BztA-Gln-NH2]",245 nM

# The remaining compounds from weak to strong by IC50, led by results:
row,IC50,SMILES
1,1310 nM,"CC(=O)N1CCC[C@]12CC=CCCCC1(CCCC=CCCCOC(=O)N3CC[C@@](C(=O)N[C@@H](Cc4ccccc4)C(=O)N[C@@H](Cc4csc5ccccc45)C(=O)N[C@@H](CC(=O)N4CCOCC4)C(N)=O)(C3)NC(=O)[C@H](CC(C)C)NC(=O)[C@H](Cc3ccccc3)NC(=O)[C@H](C)NC(=O)[C@H]([C@@H](C)O)NC(=O)[C@H](CCC(N)=O)NC(=O)[C@H](CC(=O)O)NC1=O)NC(=O)[C@H](CC1CCCCC1)NC(=O)[C@H](CC(N)=O)NC2=O (stereo partly drawn) [I-2503, Ac-PL3-Asn-Cha-B5-Asp-Gln-Thr-Ala-Phe-Leu-PyrS2-Phe-BztA-MorphAsn-NH2]"
2,754 nM,"CC(=O)N1CCC[C@]12CC=CCCCC1(CCCC=CCCCOC(=O)N3CC[C@@](C(=O)N[C@@H](Cc4ccsc4)C(=O)N[C@@H](Cc4csc5ccccc45)C(=O)N[C@@H](Cc4c[nH]c5ccccc45)C(N)=O)(C3)NC(=O)[C@H](CC(N)=O)NC(=O)[C@H](Cc3ccccc3)NC(=O)[C@H](C)NC(=O)C(C)(C)NC(=O)[C@H]([C@@H](C)O)NC(=O)[C@H](CC(N)=O)NC1=O)NC(=O)[C@H](CC(C)(C)C)NC(=O)[C@H](CC(=O)O)NC2=O (stereo partly drawn) [I-2481, Ac-PL3-Asp-Npg-B5-Asn-Thr-Aib-Ala-Phe-Asn-PyrS2-3Thi-BztA-Trp-NH2]"
3,687 nM,"CC(=O)N1CCC[C@]12CC=CCCCCC1(CCCCC=CCOC(=O)N3CC[C@@](C(=O)N[C@@H](Cc4ccccc4C(F)(F)F)C(=O)N[C@@H](Cc4csc5ccccc45)C(=O)N[C@@H](CCC(N)=O)C(N)=O)(C3)NC(=O)[C@H](CC(C)C)NC(=O)[C@H](Cc3ccccc3)NC(=O)[C@H](C)NC(=O)[C@H](C)NC(=O)[C@H](Cc3cccc(C(=O)O)c3)NC(=O)[C@H](CC(=O)O)NC1=O)NC(=O)[C@H](CC(C)(C)C)NC(=O)[C@H](CC(=O)O)NC2=O (stereo partly drawn) [I-2505, Ac-PL3-Asp-Npg-B6-Asp-3COOHF-Ala-Ala-Phe-Leu-PyrS-2F3MeF-BztA-Gln-NH2]"
4,627 nM,"CC(=O)N1CCC[C@]12CC=CCCCC1(CCCC=CCCCOC(=O)N3CC[C@@](C(=O)N[C@@H](Cc4ccsc4)C(=O)N[C@@H](Cc4csc5ccccc45)C(=O)N[C@@H](CC(C)C)C(N)=O)(C3)NC(=O)[C@H](CC(N)=O)NC(=O)[C@H](Cc3ccccc3)NC(=O)[C@H](C)NC(=O)C(C)(C)NC(=O)[C@H]([C@@H](C)O)NC(=O)[C@H](CC(N)=O)NC1=O)NC(=O)[C@H](CC(C)(C)C)NC(=O)[C@H](CC(=O)O)NC2=O (stereo partly drawn) [I-2479, Ac-PL3-Asp-Npg-B5-Asn-Thr-Aib-Ala-Phe-Asn-PyrS2-3Thi-BztA-Leu-NH2]"
5,475 nM,"CC(=O)N1CCC[C@]12CC=CCCCC1(CCCC=CCCCOC(=O)N3CC[C@@](C(=O)N[C@@H](Cc4ccsc4)C(=O)N[C@@H](Cc4csc5ccccc45)C(=O)N[C@H](C(N)=O)C(C)C)(C3)NC(=O)[C@H](CC(N)=O)NC(=O)[C@H](Cc3ccccc3)NC(=O)[C@H](C)NC(=O)C(C)(C)NC(=O)[C@H]([C@@H](C)O)NC(=O)[C@H](CC(N)=O)NC1=O)NC(=O)[C@H](CC(C)(C)C)NC(=O)[C@H](CC(=O)O)NC2=O (stereo partly drawn) [I-2480, Ac-PL3-Asp-Npg-B5-Asn-Thr-Aib-Ala-Phe-Asn-PyrS2-3Thi-BztA-Val-NH2]"
6,168 nM,"CC(=O)N1CCC[C@]12CC=CCCCCC1(CCCCC=CCOC(=O)N3CC[C@@](C(=O)N[C@@H](Cc4ccccc4C(F)(F)F)C(=O)N[C@@H](Cc4csc5ccccc45)C(=O)N[C@@H](C)C(N)=O)(C3)NC(=O)[C@H](CC(C)C)NC(=O)[C@H](Cc3ccccc3)NC(=O)[C@H](C)NC(=O)[C@H](CCC(N)=O)NC(=O)[C@H](Cc3cccc(C(=O)O)c3)NC(=O)[C@H](CC(=O)O)NC1=O)NC(=O)[C@H](CC(C)(C)C)NC(=O)[C@H](CC(=O)O)NC2=O (stereo partly drawn) [I-2507, Ac-PL3-Asp-Npg-B6-Asp-3COOHF-Gln-Ala-Phe-Leu-PyrS-2F3MeF-BztA-Ala-NH2]"
